Consider 1 compound from patent publication US20210137948A1, “TREATMENT OF INFECTIONS CAUSED BY NEISSERIA GONOCOCCUS USING A HALOGENATED SALICYLANILIDE” (priority 2018, published 2021).

Converted amounts (≈) assume the structure as drawn. Where two headings read alike, the source gives them in different places. A value given as a limit tells only on which side of the number the result lay.

For data set [1] the following is noted: cited from earlier work.
In the next data set the test system is Acinetobacter baumannii. Description: Broth microdilution MIC testing. The format is cell-based. The following applies: Acinetobacter baumannii MMX 1630/ATCC 19606, susceptible. How it is done:
(§1) Broth microdilution assay: Mueller Hinton II broth (MHB II, BBL, BD, catalog no. 212322; lot no. 5257869) was used for testing most aerobes.
(§2) MIC values were determined using a broth microdilution procedure described by CLSI, see reference (1). Automated liquid handlers (Multidrop 384, Labsystems, Helsinki, Finland; Biomek 2000 and Biomek FX, Beckman Coulter, Fullerton Calif.) were used to conduct serial dilutions and liquid transfers.
(§3) The wells in Columns 2 through 12 of two standard 96-well microdilution plates (Costar 3795, Corning Inc., Corning, N.Y.) were filled with 150 μL of diluent specific to the compound tested. Three hundred microliters of each comparator and investigational drug solution (40× or 100×) was added to one well in Column 1 of the plates. The Biomek 2000 was used to complete the serial transfers through Column 11. The wells of Column 12 contained no drug and were the organism growth control wells. These panels were the “mother plates.”
(§4) Because drugs were prepared at either 40× or 100×, the “daughter plates” were loaded with 185-188 μL of the appropriate test media for the tested organism, using the Multidrop 384 or by hand. The daughter plates were prepared on the Biomek FX instrument, which transferred 2-5 μL of drug solution from each well of a mother plate to the corresponding well of each daughter plate in a single step. The wells of the daughter plates ultimately contained 185-188 μL of broth appropriate to the organism, 2-5 μL of drug solution, and 10 μL of bacterial inoculum prepared in broth.
(§5) Standardized inoculum of each organism was prepared per CLSI methods, see reference (1). The inoculum for each organism was dispensed into sterile reservoirs divided by length (Beckman Coulter), and the Biomek 2000 was used to inoculate the plates. Daughter plates were placed on the Biomek 2000 work surface in reverse orientation so that inoculation took place from low to high drug concentration. The Biomek 2000 delivered 10 μL of standardized inoculum into each well. This yielded a final cell density in the daughter plates of approximately 5×10^5 CFU/mL.
(§6) Plates were stacked 3 high, covered with a lid on the top plate, placed in plastic bags, and incubated at 35° C. for approximately 18 to 20 hr. Following incubation, the microplates were removed from the incubator and viewed from the bottom using a plate viewer. […] The MIC was read and recorded as the lowest concentration of drug that inhibited visible growth of the organism.

A further data set has as its system Enterobacter cloacae. Description: Broth microdilution MIC testing. The note with it: Enterobacter cloacae MMX 6089, susceptible. The format is cell-based. The protocol:
as §1, §2, §3, §4, §5, §6
(In general: In broth dilution the organism is exposed to a series of concentrations in liquid medium.)

The subject of a further data set is Klebsiella pneumoniae. In words: Broth microdilution MIC testing. The format is cell-based. The following applies: Klebsiella pneumoniae MMX 214/ATCC 13883, susceptible. How it is done:
as §1, §2, §3, §4, §5, §6

Another data set concerns Escherichia coli. In words: Broth microdilution MIC testing. The format is cell-based. The following applies: for MIC: Escherichia coli, read-out: Minimal Inhibitory Concentration. The protocol: as §1, §2, §3, §4, §5, §6
In data set [2] the test system is Stenotrophomonas maltophila. Description: Broth microdilution MIC testing. The note with it: Stenotrophomonas maltophila MMX 4746, susceptible. The format is cell-based. The protocol: as §1, §2, §3, §4, §5, §6
The test system of another data set is Pseudomonas aeruginosa. Description: Broth microdilution MIC testing. The format is cell-based. The following applies: Pseudomonas aeruginosa MMX 103/ATCC 27853, susceptible, QC. How it is done: as §1, §2, §3, §4, §5, §6
The test system of data set [3] is N. gonorrhoeae ATCC49226/MMX 683. Description: Agar dilution MIC assay (Example 1). The format is cell-based, Neisseria gonorrhoeae. The protocol:
Neisseria gonococcus (N. gonorrhoeae) were assayed using a reference agar dilution method, see reference (2). Drug dilutions and drug-supplemented agar plates were prepared manually. Neisseria gonococcus was grown on Chocolate agar in a CO2 incubator overnight at 35° C. prior to assay. […] The MIC was read per CLSI guidelines, see reference (3).

For data set [4] the following is noted: via the urinary tract or by enzymatic metabolism in the liver; cited from earlier work.

Consider `O=C(Nc1ccc([N+](=O)[O-])cc1Cl)c1cc(Cl)ccc1O` [Niclosamide, 2′,5-dichloro-4′-nitrosalicylanilide], for which the solubility in water entry in data set [1] is “poorly soluble”. Also, the MIC with Acinetobacter baumannii (ATCC19606, read-out: Minimal Inhibitory Concentration) is > 8 µg/mL; in the data set on Enterobacter cloacae (read-out: Minimal Inhibitory Concentration), > 8 µg/mL; in the data set on Klebsiella pneumoniae (ATCC13883, read-out: Minimal Inhibitory Concentration) it was > 8 µg/mL; in the data set with Escherichia coli (ATCC25922), > 8 µg/mL; in the data set with Escherichia coli, > 8 µg/mL; in data set [2] (Stenotrophomonas sp. LMG 10879, read-out: Minimal Inhibitory Concentration), > 8 µg/mL. The MIC in the data set with Pseudomonas aeruginosa (ATCC27853, read-out: Minimal Inhibitory Concentration) is > 8 µg/mL; in [3] (ATCC49226, Neisseria gonorrhoeae MMX 683/ATCC 49226, QC, read-out: Minimal Inhibitory Concentration), 0.12 µg/mL (≈ 0.367 µM). Besides, the “Minimal Inhibitory Concentration” value with Acinetobacter baumannii is > 8 µg/mL; with Enterobacter cloacae, > 8 µg/mL; in the data set with Klebsiella pneumoniae it was > 8 µg/mL; with Escherichia coli (Escherichia coli MMX 102/ATCC 25922, QC strain) it was > 8 µg/mL; in the data set on Escherichia coli (Escherichia coli MMX 120, acrAB efflux pump knockout), > 8 µg/mL; in data set [2], > 8 µg/mL. Further, the “Minimal Inhibitory Concentration” value is > 8 µg/mL in the data set with Pseudomonas aeruginosa and 0.12 µg/mL in data set [3] (Neisseria gonorrhoeae MMX 683/ATCC 49226, QC). For the same compound, the “in vitro activity (in words)” value in data set [3] (against N. gonococcus (N. gonorrhoeae), Example 1 conclusion) was “good in vitro activity”. Moreover, in data set [4], the “clearance from the bloodstream” value is “quickly cleared”.
